Test results taken from publication PMC5333395, “Assessing histone demethylase inhibitors in cells: lessons learned” (Epigenetics & Chromatin, 2017).

Tests used:
KDM6B = KDM6B (Homo sapiens, UniProt O15054); assay: High-content immunofluorescence (IF) assay, overexpressed full-length FLAG-tagged KDM in HeLa cells; type: cell-based; conditions: HeLa cells overexpressing WT KDM6B, H3K27me3 mark, 24 h; read-out: KDM6B, in cells, EC50 by IF assay (head: IC50)
Method: (§1) HeLa cells (ATCC) were cultured at 37 °C and 5% CO2 in Minimal Essential Media—Eagle (Sigma-Aldrich, UK) supplemented with 10% heat-inactivated foetal calf serum (FCS) (Gibco, UK), and 1% L-glutaMAX (Gibco, UK) in T75 flasks (Sarstedt, UK) and passaged regularly with TrypLE (Life Technologies, UK) before cells reached confluence. On day 0, 7000 cells per well were plated on a 96-well clear bottom CellCarrier plate (PerkinElmer, UK). The next day the cells were transfected with Lipofectamine 3000 (ThermoFisher Scientific, UK) following the manufacturer’s instructions. Briefly, 0.1 µg of plasmid DNA (encoding for the respective demethylase) and 0.15 µL of Lipofectamine 3000 were diluted in separate tubes containing 5 µL OptiMEM. 0.15 µL of P3000 was added to the tube with the DNA. The two solutions were then mixed gently and allowed to incubate for 5 min at room temperature. Next, the DNA-lipid complex was added to the cells for 4 h at 37 °C and 5% CO2.
(§2) Compound dilutions were made in a 96-well PCR plate (Starlab, UK). The culture medium was supplemented with 0.4% DMSO so that the solvent concentration was maintained throughout. Compounds were serially diluted at a 1:2 or 1:3 dilution ratio. Next, the cell culture plate was removed from the incubator and the medium was gently aspirated and replaced with the fresh medium containing diluted compounds.
(§3) Then cells were rinsed once with PBS and blocked for 30 min at room temperature using 3% v/v foetal calf serum diluted in PBS.

KDM3A = target: T1, KDM3A (Homo sapiens, UniProt Q9Y4C1); assay: as above; type: cell-based; conditions: HeLa cells overexpressing WT KDM3A, H3K9me2 mark, 24 h; read-out: KDM3A, in cells, EC50 by IF assay (head: IC50)
T1 sequence (Q9Y4C1 1-1321): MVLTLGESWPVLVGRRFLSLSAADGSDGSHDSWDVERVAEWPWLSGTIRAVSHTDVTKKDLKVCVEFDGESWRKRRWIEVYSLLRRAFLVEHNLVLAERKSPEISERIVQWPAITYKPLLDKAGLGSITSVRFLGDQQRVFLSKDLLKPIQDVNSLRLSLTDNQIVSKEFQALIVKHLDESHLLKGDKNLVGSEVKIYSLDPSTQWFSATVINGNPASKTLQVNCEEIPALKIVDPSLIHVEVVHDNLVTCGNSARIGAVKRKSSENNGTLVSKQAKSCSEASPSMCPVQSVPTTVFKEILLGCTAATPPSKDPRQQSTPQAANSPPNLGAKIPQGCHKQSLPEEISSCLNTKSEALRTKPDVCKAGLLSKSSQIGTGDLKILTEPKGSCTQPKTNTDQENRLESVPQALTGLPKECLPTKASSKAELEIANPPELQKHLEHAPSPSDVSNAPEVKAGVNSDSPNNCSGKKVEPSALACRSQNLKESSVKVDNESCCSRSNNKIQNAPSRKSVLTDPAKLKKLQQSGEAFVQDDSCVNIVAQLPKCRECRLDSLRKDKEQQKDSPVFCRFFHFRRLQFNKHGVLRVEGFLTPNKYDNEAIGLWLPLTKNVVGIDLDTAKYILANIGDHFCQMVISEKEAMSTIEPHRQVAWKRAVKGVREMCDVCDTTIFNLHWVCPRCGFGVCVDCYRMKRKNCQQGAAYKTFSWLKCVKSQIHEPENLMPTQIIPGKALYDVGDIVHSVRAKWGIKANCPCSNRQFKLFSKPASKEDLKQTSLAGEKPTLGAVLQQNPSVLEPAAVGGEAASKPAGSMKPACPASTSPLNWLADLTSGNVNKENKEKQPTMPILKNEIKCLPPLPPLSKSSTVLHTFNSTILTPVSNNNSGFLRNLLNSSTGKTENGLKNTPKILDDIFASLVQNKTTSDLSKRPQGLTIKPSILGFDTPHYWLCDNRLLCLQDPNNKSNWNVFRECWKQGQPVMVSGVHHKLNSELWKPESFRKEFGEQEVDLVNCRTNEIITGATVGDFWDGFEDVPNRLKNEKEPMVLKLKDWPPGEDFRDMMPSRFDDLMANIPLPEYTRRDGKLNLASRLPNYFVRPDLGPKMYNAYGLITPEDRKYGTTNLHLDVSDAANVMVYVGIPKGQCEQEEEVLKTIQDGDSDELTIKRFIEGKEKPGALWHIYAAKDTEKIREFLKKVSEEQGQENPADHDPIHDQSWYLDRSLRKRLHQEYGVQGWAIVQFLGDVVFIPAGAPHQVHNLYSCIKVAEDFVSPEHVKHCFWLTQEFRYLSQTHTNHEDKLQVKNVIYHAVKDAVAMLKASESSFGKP
Method: as §1, §2, §3

KDM6B, sequence (O15054 whole entry): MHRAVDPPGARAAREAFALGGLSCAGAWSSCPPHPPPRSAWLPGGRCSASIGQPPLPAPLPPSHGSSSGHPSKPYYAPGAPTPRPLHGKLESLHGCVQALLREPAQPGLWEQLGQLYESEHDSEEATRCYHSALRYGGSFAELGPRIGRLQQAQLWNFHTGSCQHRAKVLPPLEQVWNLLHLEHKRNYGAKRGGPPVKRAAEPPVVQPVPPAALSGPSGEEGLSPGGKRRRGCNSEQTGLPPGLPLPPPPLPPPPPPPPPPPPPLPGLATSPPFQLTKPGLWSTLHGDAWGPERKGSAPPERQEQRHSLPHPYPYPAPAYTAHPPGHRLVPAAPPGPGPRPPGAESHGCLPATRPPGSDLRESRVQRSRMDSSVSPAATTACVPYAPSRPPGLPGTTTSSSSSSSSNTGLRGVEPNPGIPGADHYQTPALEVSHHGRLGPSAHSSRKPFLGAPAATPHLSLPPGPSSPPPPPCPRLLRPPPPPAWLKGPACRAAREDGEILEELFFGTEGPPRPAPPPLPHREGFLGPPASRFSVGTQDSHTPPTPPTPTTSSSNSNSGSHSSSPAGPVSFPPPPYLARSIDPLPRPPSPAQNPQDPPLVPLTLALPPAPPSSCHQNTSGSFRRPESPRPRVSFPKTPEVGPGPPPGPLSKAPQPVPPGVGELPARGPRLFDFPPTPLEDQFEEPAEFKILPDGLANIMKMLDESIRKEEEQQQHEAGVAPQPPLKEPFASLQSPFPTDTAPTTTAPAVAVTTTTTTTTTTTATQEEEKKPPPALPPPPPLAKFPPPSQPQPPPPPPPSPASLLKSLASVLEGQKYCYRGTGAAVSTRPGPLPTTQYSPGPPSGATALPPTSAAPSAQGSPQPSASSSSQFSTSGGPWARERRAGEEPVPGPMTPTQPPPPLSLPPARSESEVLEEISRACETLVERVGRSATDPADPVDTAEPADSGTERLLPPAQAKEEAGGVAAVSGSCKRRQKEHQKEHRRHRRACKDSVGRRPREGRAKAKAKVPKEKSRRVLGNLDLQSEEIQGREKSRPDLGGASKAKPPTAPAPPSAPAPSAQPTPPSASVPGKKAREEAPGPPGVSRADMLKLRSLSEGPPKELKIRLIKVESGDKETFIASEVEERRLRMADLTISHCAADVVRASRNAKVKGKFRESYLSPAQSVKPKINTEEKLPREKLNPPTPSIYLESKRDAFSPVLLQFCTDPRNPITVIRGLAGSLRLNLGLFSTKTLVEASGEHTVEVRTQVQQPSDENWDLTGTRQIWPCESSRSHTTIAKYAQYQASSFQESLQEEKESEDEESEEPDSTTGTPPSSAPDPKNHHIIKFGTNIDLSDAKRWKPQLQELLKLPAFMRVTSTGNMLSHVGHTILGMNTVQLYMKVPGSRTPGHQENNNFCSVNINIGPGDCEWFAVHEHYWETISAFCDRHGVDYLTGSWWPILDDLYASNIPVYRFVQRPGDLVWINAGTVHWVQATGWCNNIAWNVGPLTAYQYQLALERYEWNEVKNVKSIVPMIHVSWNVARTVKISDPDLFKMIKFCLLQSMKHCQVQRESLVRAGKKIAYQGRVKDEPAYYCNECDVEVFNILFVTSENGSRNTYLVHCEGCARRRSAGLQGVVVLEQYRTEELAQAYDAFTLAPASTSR

Structure (SMILES): CCN(CCN(C)C)C(=O)CNCc1cncc(C(N)=O)c1 [KDOAM-32]
- EC50 (KDM6B): > 100 µM
- EC50 (KDM3A): > 100 µM
